Reference: ChEMBL document CHEMBL3045415, “Synthesis, characterization and antimicrobial activities of some novel bis-chalcones” (2012)
Values after ≈ are worked out from the molar mass of the structure shown. Active and inactive are the calls of the source. The rule behind the calls is not given here.

Legend:
Assay type in all cases: functional
Staphylococcus aureus [1] = assay: Antibacterial activity against Staphylococcus aureus ATCC 29737 after 24 hr by disk diffusion method; settings: ATCC 29737, 24 h
Escherichia coli [2] = assay: Antibacterial activity against Escherichia coli ATCC 35218 at 400 ug/ml after 24 hr by cup-plate agar method; settings: for zone of inhibition at 400 µg/mL: ATCC 35218, 24 h, read-out: IZ
Escherichia coli [3] = assay: Antibacterial activity against Escherichia coli ATCC 35218 after 24 hr by disk diffusion method; settings: ATCC 35218, 24 h
Staphylococcus aureus [4] = assay: Antibacterial activity against Staphylococcus aureus ATCC 29737 at 400 ug/ml after 24 hr by cup-plate agar method; settings: for zone of inhibition at 400 µg/mL: ATCC 29737, 24 h, read-out: IZ
Candida albicans [5] = assay: Antifungal activity against Candida albicans ATCC 10231 at 400 ug/ml after 24 hr by cup-plate agar method; settings: for zone of inhibition at 400 µg/mL: ATCC 10231, 24 h, read-out: IZ
Candida albicans [6] = assay: Antifungal activity against Candida albicans ATCC 10231 after 24 hr by disk diffusion method; settings: ATCC 10231, 24 h

Molecule	MIC (Staphylococcus aureus [1]) [µg/mL]	zone of inhibition at 400 µg/mL (Escherichia coli [2]) [mm]	MIC (Escherichia coli [3]) [µg/mL]	inhibition zone (IZ) (Staphylococcus aureus [4])	zone of inhibition at 400 µg/mL (Candida albicans [5]) [mm]	MIC (Candida albicans [6]) [µg/mL]	zone of inhibition at 400 µg/mL (Staphylococcus aureus [4]) [mm]	inhibition zone (IZ) (Candida albicans [5])	inhibition zone (IZ) (Escherichia coli [2])
O=C(/C=C/c1cccc(Cl)c1)c1ccc(C(=O)/C=C/c2cccc(Cl)c2)cc1	300 (≈ 737 µM)	13	300 (≈ 737 µM)	inactive	12				
O=C(/C=C/c1ccccc1O)c1ccc(C(=O)/C=C/c2ccccc2O)cc1		30	50 (≈ 135 µM)			100 (≈ 270 µM)	13	inactive	
COc1ccccc1/C=C/C(=O)c1ccc(C(=O)/C=C/c2ccccc2OC)cc1	300 (≈ 753 µM)			inactive	9				inactive
O=C(/C=C/c1ccccc1[N+](=O)[O-])c1ccc(C(=O)/C=C/c2ccccc2[N+](=O)[O-])cc1	100 (≈ 233 µM)	21	100 (≈ 233 µM)		15	100 (≈ 233 µM)	15		
O=C(/C=C/c1cccc([N+](=O)[O-])c1)c1ccc(C(=O)/C=C/c2cccc([N+](=O)[O-])c2)cc1				inactive				inactive	inactive
C[C@@H]1[C@H](O)[C@@H](C)/C=C/C=C/C=C/C=C/C=C/C=C/C=C/[C@H](O[C@@H]2O[C@H](C)[C@@H](O)[C@H](N)[C@@H]2O)C[C@@H]2O[C@](O)(C[C@@H](O)C[C@@H](O)[C@H](O)CC[C@@H](O)C[C@@H](O)CC(=O)O[C@H]1C)C[C@H](O)[C@H]2C(=O)O [AMPHOTERICIN B]					21				
GENTAMICIN				23 mm					24 mm
O=C(/C=C/c1ccc([N+](=O)[O-])cc1)c1ccc(C(=O)/C=C/c2ccc([N+](=O)[O-])cc2)cc1	50 (≈ 117 µM)	13	50 (≈ 117 µM)		25	200 (≈ 467 µM)	10		
O=C(/C=C/c1ccccc1Cl)c1ccc(C(=O)/C=C/c2ccccc2Cl)cc1	200 (≈ 491 µM)	27	100 (≈ 246 µM)		12	100 (≈ 246 µM)	10		
COc1ccc(/C=C/C(=O)c2ccc(C(=O)/C=C/c3ccc(OO)cc3)cc2)cc1	300 (≈ 749 µM)			inactive	22				inactive
O=C(/C=C/c1cccc(Br)c1)c1ccc(C(=O)/C=C/c2cccc(Br)c2)cc1		30	50 (≈ 101 µM)			200 (≈ 403 µM)	10	inactive	
O=C(/C=C/c1ccccc1)c1ccc(C(=O)/C=C/c2ccccc2)cc1	200 (≈ 591 µM)	13	200 (≈ 591 µM)		17	200 (≈ 591 µM)	10		
O=C(/C=C/c1ccc(Br)cc1)c1ccc(C(=O)/C=C/c2ccc(Br)cc2)cc1		30	50 (≈ 101 µM)			200 (≈ 403 µM)	9	inactive	
COc1cccc(/C=C/C(=O)c2ccc(C(=O)/C=C/c3cccc(OC)c3)cc2)c1				inactive				inactive	inactive
COc1ccc(/C=C/C(=O)c2ccc(C(=O)/C=C/c3ccc(OC)c(OC)c3)cc2)cc1OC		30	100 (≈ 218 µM)			200 (≈ 436 µM)	11	inactive	
O=C(/C=C/c1ccc(Cl)cc1)c1ccc(C(=O)/C=C/c2ccc(Cl)cc2)cc1	200 (≈ 491 µM)	23	100 (≈ 246 µM)		12	200 (≈ 491 µM)	10		
